Reference: US20230357312A1, “Borylated Di-Peptide Amino Acid compositions for use in Boron Neutron Capture Therapy and methods thereof” (TAE Life Sciences, priority 2021, published 2023)
“Also recorded” adds a separate entry of the source.

Legend:
Solubility = type: physicochemical
AsPC-1 cells [1] = test: Uptake of BPA and dipeptides in PEPT1 high expressing cells; type: cell-based, human; conditions: PEPT1 high expressing AsPC1 cells
Protocol: The indicated cancer cell line (A) or FaDu cells (B) were harvested from culture and washed twice with PBS. Cell lines were adjusted to 2 million cells/ml in Hanks Balanced Salt Solution (HBSS). BPA or dipeptide boron compounds were added to cells at the final concentration of 2.5 mM in HBSS and the treated cells were incubated at 37° C. 5% CO2 for 2 hrs with shaking. The cells were collected by centrifugation; washed with cold PBS twice and reconstituted in 1 ml of cold PBS. Then, 50 µl of cell suspension was removed, pelleted, and lysed using RIPA buffer and the protein concentration was determined using BCA assay. The remaining 950 µl was used for boron compounds uptake measurements using ICP-OES.
To this end, 0.5 mL of concentrated nitric acid was added to each cell pellet in a 15 mL conical tube. The tubes were capped and placed in an oven set at 80° C. for 3 hours. […] The boron content in each sample was then measured on an Agilent 5110 ICP-OES using an Agilent SPS4 Autosampler for sample introduction.
The data was analyzed using Agilent’s ICP Expert Software, version 7.4.2.10790. Boron was measured axially at the 249.772 nm wavelength and the internal standard Beryllium was measured axially at the 313.042 nm wavelength. […] Once determined, the boron measurement for each sample was normalized to protein content and final boron uptake results were expressed as ng boron/mg protein. […]

AsPC-1 cells [2] = test: Uptake inhibition by PEPT1 competitive inhibitor Gly-SAR; type: cell-based, human; conditions: 0.8 mM test compound, with and without Gly-SAR
Protocol: (§1) In this experiment, uptake of BPA and dipeptide His-BPA (0.8 mM of each) was carried out in FaDu and ASPC-1 in the presence and absence of the indicated concentrations of PEPT1 dipeptide transporter competitive inhibitor Gly-SAR. Normalized boron uptake was determined as in FIG. 15.

FaDu cells = test: as above; type: cell-based, human
Protocol: as §1

FaDu subcutaneous tumors = test: Biodistribution of His-BPA, FaDu tumors in vivo; parameters: species or system female CB17 SCID mice; conditions: His-BPA 4X higher dose than BPA-F
Protocol: In this experiment, biodistribution of His-BPA was evaluated in vivo using the following protocols. All animal studies were carried out following the “Guide for the Care and Use the Laboratory Animals,” 8th Ed. and Animal Welfare Act (USDA). Human hypopharyngeal squamous cell carcinoma FaDu cells were maintained in DMEM, supplemented with L-glutamine and 10% FBS.
Subcutaneous (s.c.) tumors were generated by injection of 2.5 × 10^6 cancer cells mixed at a 1:1 dilution with Matrigel (Corning Life Sciences) in the right flank of female CB17 SCID mice. Tumor sizes were determined by caliper measurements, and the tumor volume was calculated as width^2×Length/2, wherein width is the smallest dimension and length is the largest dimension. Tumors were allowed to grow untreated until they reached an approximate volume of 300 mm^3. At that point, animals were randomized and allocated to each treatment group based on tumor volume at the time of treatment initiation to ensure similar mean tumor size and variation in each group. Each group received a single dose of BPA at […] or a test article at […] via intravenous tail vein injection. […]
Furthermore, all compounds tested, with the exception of BPA were prepared as 80-100 mg/mL stocks. […] The digested tissues were analyzed by ICP OES to determine the boron concentration.

[3] = system: FaDu, Detroit-562, MeWo, HCC-1954, A549 and AsPC-1 human cancer xenograft models; test: Dose escalation of boron delivery, all tested xenograft models; type: in vivo, CB17 SCID mice; conditions: 1000 mg/kg, 120 minutes
Protocol: Tumors were harvested 120 minutes following treatment and boron content determined by ICP-OES. Data are the means ± SD of 5 mice per treatment group.

CT26 xenografts [4] = test: BNCT study, 12 or 6 minute irradiation at 5 MW; type: in vivo, BALB/c mice; conditions: 800 mg/kg, 12 minutes irradiation at 5 MW, monitored to 22 days
Protocol: Following one (1) hour of treatment time, mice were irradiated for either 12 minutes (33(A)) or 6 minutes (33(B)) at the Kyoto University Research Reactor (Kyoto, Japan) 1 set at 5 megawatts. Data are the means ± SD of 3 mice per treatment group. Tumors were measured for growth out to 22 days.

CT26 xenografts [5] = test: BNCT tumor regression study, 6 minute irradiation; type: in vivo, BALB/c mice; conditions: 900 mg/kg, 6 minutes irradiation
Protocol: In this experiment, CT26 xenografts in BALB/c mice were dosed with 400 mg/kg of BPA or 900 mg/kg of His-BPA or BPA-BPA. Following one (1) hour treatment time, mice were irradiated for 6 minutes at the Kyoto University Research Reactor (Kyoto, Japan) 1 set at 5 megawatts. Data are the means ± SD of 3 mice per treatment group. Tumors were measured for growth out to 36 days and examined for tumor presence at 40 days. BPA and control groups were sacrificed at day 18 due to excessive tumor growth.

boron in the kidneys and pancreas compared to BPA-F (FaDu subcutaneous tumors): Significantly higher amounts of boron
tumor boron compared to BPA at 200 mg/kg [3]: higher boron levels
SMILES: N[C@@H](Cc1c[nH]cn1)C(=O)N[C@@H](Cc1ccc(B(O)O)cc1)C(=O)O [His-BPA, Histidine-BPA]
solubility (in words, compared to BPA) (Solubility): high solubility; also recorded: improved solubility
boron uptake compared to BPA (AsPC-1 cells [1]): to a higher level than BPA
effect of Gly-SAR on boron uptake (AsPC-1 cells [2]): dose dependent inhibitory effect
boron signal in PEPT1 negative FaDu cells (FaDu cells; 0.8 mM): does deliver a boron signal
effect of Gly-SAR on boron uptake (FaDu cells; 0.8 mM test compound, with and without Gly-SAR): no effect
tumor growth after BNCT (CT26 xenografts [4]): significant and similar growth inhibition, even regression
visual inspection and histological examination of the tumor area (CT26 xenografts [5]; one treated mouse): lack of tumor tissue and only scar tissue at the original tumor site
tumor growth after BNCT (CT26 xenografts [5]; sustained out to 36 days): significant tumor regression
